In patent US20260000658A1, “METHODS FOR THE TREATMENT OF PROLIFERATIVE GLOMERULONEPHRITIS” (INSTITUT NATIONAL DE LA SANTÉ ET DE LA RECHERCHE MÉDICALE, priority 2022, published 2026):

Tested on: PIK3CA^Pod-HET mice
Experiment: PIK3CA^Pod-HET mice treated orally with alpelisib
Assay type: in vivo, mouse
Experimental: For the uninephrectomy experiments, the right kidneys were removed under anesthesia. For the medical treatment of mice, 50 mg kg −1 alpelisib (MedChem Tronica) in 1% carboxymethylcellulose (Sigma Aldrich)+0.5% Tween (Sigma Aldrich) or vehicle (1% carboxymethylcellulose+0.5% Tween) was administered by oral gavage daily for the indicated periods of time. Blood and urines were obtained at the indicated times. At euthanasia, blood, urines, kidneys were harvested. In some experiments, spleens, hearts, and bone marrow (BM) in femurs and tibias were harvested as well. Tissues were fixed in 4% paraformaldehyde and paraffin embedded for immunohistochemical analysis, snap-frozen in Optimal Cutting Temperature (OCT), or stored at −80° C. for mRNA or protein analysis.
Mouse blood counts were analyzed using a hematology analyzer (ProCyte Dx; IDEXX Laboratories). Mouse serum creatinine, blood urea nitrogen, urinary albumin, and urinary creatinine were evaluated using an AU5800 (Beckman Coulter) autoanalyzer. Serum anti-dsDNA measurement was performed according to the manufacturer's instruction using mouse anti-dsDNA ELISA kit (LBIS). The absorbance was measured using Ininite M Nano (TECAN).
4-μm kidney sections were stained with periodic acid-Schiff (PAS), Masson's Trichrome (MT), Periodic acid metenamine silver (PAM) or Hematoxylin and Eosin (HE) staining for histological analysis. The degree of glomerular lesions was evaluated using the following scoring system: 0=no lesion, 1=affecting up to 25% of the glomerulus, 2=affecting 25-50% of the glomerulus, 3=affecting 50-75% of the glomerulus, and 4=affecting 75-100%. At least 50 glomeruli per sample were measured for each analysis. An indirect immunoperoxidase method was used for immunohistochemistry. Briefly, after deparaffinization, antigen retrieval was performed with citrate buffer (pH6) or Tris-EDTA buffer (pH9 or pH6) using microwave or high temperature (95° C.). Endogenous peroxidase activity was quenched using 3% hydrogen peroxide; nonspecific protein binding was blocked using 2.5% normal horse serum (Vector Laboratories), and endogenous biotin activity was quenched using the Avidin/Biotin Blocking Kit (Vector Laboratories). When using mouse primary antibodies on mouse tissue, Klear mouse blocking reagent (Diagomics) was used to block endogenous mouse immunoglobulins. After blocking, the tissue sections were incubated with the primary antibodies overnight at 4° C. The following primary antibodies were used: rabbit anti-Ki67 antibody (SP6; Thermo Fisher Scientific), rabbit anti-P-S6RP antibody (D68F8; Cell Signaling Technology), mouse anti-P-AKT (Ser473) antibody (587F11; Cell Signaling Technology), rabbit anti-P-AKT (Thr308) antibody (C31E5E; Cell Signaling Technology), mouse anti-S6RP antibody (54E2; Cell Signaling Technology), chicken anti-GFP antibody (Abcam), guinea pig anti-Nephrin antibody (GP-N2; Progen), rabbit anti-Podocin antibody (P0372; Sigma Aldrich), mouse anti-WTI antibody (6F-H2; DAKO). The corresponding secondary antibodies including anti-mouse IgG, anti-rabbit IgG, anti-guinea pig IgG, biotinylated anti-rabbit IgG (Vector Laboratories), and biotinylated anti-mouse IgG (Vector Laboratories) were applied. For Avidin/Biotin detection, an R.T.U. Vectastain Kit (Vector Laboratories) or streptavidin (Thermo Fisher Scientific) was used. The immunoreactive antigens sites were detected with hydrogen peroxide and diaminobenzidine. […]

[1] = 3 months old mice, oral, 2-3 weeks

## Cc1nc(NC(=O)N2CCC[C@H]2C(N)=O)sc1-c1ccnc(C(C)(C)C(F)(F)F)c1 [alpelisib, Alpelisib]
[1]
  albuminuria: progressive reduction in albuminuria
  glomerular AKT/mTOR pathway: glomerular inhibition of the AKT/mTOR pathway
  podocyte size: podocyte size reduction
alpelisib-treated PIK3CA^Pod-HET mice
  gene expression anomalies (scRNA-seq): correction of various gene expression anomalies
alpelisib-treated, untreated PIK3CA^Pod-HET 23.7%, WT about 10%
  podocyte populations (scRNA-seq of kidney cells): 11.7%
